Laboratory results as given in PMC9569940, “Discovery and In Vivo Efficacy of Trace Amine-Associated Receptor 1 (TAAR1) Agonist 4-(2-Aminoethyl)-N-(3,5-dimethylphenyl)piperidine-1-carboxamide Hydrochloride (AP163) for the Treatment of Psychotic Disorders” (International Journal of Molecular Sciences, 2022).
“Also recorded” adds a separate entry of the source. Structures can show the parent of a compound that is named as a salt.

Tests used:
[1] = molecular target: T1, TAAR1 (Homo sapiens, UniProt Q96RJ0); test: BRET cAMP biosensor (EPAC) assay of TAAR1 agonistic activity in transiently transfected HEK-293 cells; assay type: cell-based; design: key to Agonistic Activity (class Inactive): Inactive: Producing less than 20% activation of TAAR1 relative to 1 μM tyramine hydrochloride; settings: for EC50 / EC50, μM: TAAR1 agonistic activity, concentration-response; for Agonistic Activity at 1 μM, %: compound at 1 μM; for Agonistic Activity at 1 μM, % / activation at 10 µM: compared to 1 μM tyramine hydrochloride (positive control), primary screening; for TAAR1 Activity (active / inactive, in words): agonistic activity in words; for Agonistic Activity (class Inactive): primary screening at 1 μM or 10 μM, relative to 1 μM tyramine hydrochloride; for activation at 10 µM: HEK293, compound at 10 μM (footnote c)
T1 construct: expressed in transfected cells; host or cells: HEK-293 cells, transient transfection
T1 sequence (Q96RJ0 1-339): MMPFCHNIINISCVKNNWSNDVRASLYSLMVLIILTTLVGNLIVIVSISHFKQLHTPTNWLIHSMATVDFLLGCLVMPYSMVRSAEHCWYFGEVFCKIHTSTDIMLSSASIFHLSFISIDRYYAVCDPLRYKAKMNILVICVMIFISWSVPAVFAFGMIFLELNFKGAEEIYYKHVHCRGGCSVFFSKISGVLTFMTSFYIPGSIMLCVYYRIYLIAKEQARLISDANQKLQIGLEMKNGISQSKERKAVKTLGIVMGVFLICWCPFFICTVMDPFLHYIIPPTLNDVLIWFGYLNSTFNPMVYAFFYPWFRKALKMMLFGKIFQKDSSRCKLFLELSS
Experimental: Compounds 7–29 synthesized as described above (as well the initial hit compound 1 used as a comparator) were tested in the Bioluminescence Resonance Energy Transfer approach (BRET) assay using HEK-293 cells transiently transfected with cDNA for TAARs as well as cAMP BRET biosensor (EPAC) protein. The compounds were initially tested at 1 μM or 10 μM concentrations and those producing <20% activation of TAAR1 (relative to 1 μM tyramine hydrochloride) were not pursued further. The active compounds were further evaluated in a dose–response mode in order to determine their EC50 values.
The Bioluminescence Resonance Energy Transfer approach (BRET) has been used for functional activity experiments. HEK-293 cells were transiently transfected with cDNA for TAARs and cAMP BRET biosensor (EPAC) protein and then plated in a 96-well plate as described. All compounds were tested at the initial concentrations of 1 μM or 10 μM. Then, for active compounds, a concentration–response analysis was performed in order to calculate the EC50 values. Natural agonist of TAAR1 tyramine hydrochloride was used as a positive control.

[2] = tested on: dopamine transporter knockout (DAT-KO) rats; test: DAT-KO rat hyperlocomotion test; assay type: in vivo; settings: for Reduction in hyperlocomotion of DAT-KO rats: i.p., 90 min locomotion test, dose range 5–15 mg/kg for 18
Experimental: Compounds 9, 17–19 were evaluated in dopamine transporter knockout (DAT-KO) rats characterized with psychosis-like hyperlocomotion activity. The ability of compounds to reduce the hyperlocomotion in these genetically modified animals generally deemed as an adequate model of psychosis-like states and schizophrenia was expected to unveil the potential of these compounds as potential therapies for these psychiatric disorders.
Twelve Wistar dopamine transporter knockout (DAT-KO) female rats were utilized for assessment of drugs’ activity on hyperlocomotion. Animals were maintained on a 12/12 light/dark cycle at the room temperature maintained between 20 °C and 23 °C with a relative humidity maintained between 30% and 70%. Chow and water were provided ad libitum for the duration of the studies.
All compounds were dissolved in physiological saline (0.9% solution of NaCl) and intraperitoneally injected in volume 10 mL/kg immediately before locomotion testing.
Rats were intraperitoneally injected with a compound solution or vehicle (saline) and were immediately placed in Plexiglas boxes 40 cm × 40 cm × 40 cm for 90 min. Noldus EthoVision software was used to measure the distance moved by the animals.

[3] = Solubility; assay type: physicochemical; settings: reason for not progressing to in vivo tests
[4] = molecular target: T1, TAAR1; design: method as in PMID 11723224; settings: not tested in this paper; cited from earlier work

Compound	EC50 [1]	Agonistic Activity (class Inactive) [1]	activation at 10 µM [1]	also measured
Cl.NCCC1CCN(C(=O)Nc2ccccc2)CC1 [Compound 1, 4-(2-Aminoethyl)-N-phenylpiperidine-1-carboxamide hydrochloride]	507 nM	–	–	Agonistic Activity at 1 μM, % [1]: 65%
Cc1ccc(NC(=O)N2CCC(CCN)CC2)cc1.Cl [Compound 7, 4-(2-Aminoethyl)-N-(4-methylphenyl)piperidine-1-carboxamide hydrochloride]	–	Inactive ^b	–	TAAR1 Activity (active / inactive, in words) [1]: Inactive
Cl.NCCC1CCN(C(=O)Nc2cccc(F)c2)CC1 [Compound 8, 4-(2-Aminoethyl)-N-(3-fluorophenyl)piperidine-1-carboxamide hydrochloride]	–	Inactive	–	–
Cc1cccc(NC(=O)N2CCC(CCN)CC2)c1.Cl [Compound 9, 4-(2-Aminoethyl)-N-(3-methylphenyl)piperidine-1-carboxamide hydrochloride]	52 nM	–	–	TAAR1 Activity (active / inactive, in words) [1]: Active; Agonistic Activity at 1 μM, % [1]: 89%; Reduction in hyperlocomotion of DAT-KO rats [2]: absence of in vivo efficacy
Cc1ccccc1NC(=O)N1CCC(CCN)CC1.Cl [Compound 10, 4-(2-Aminoethyl)-N-(2-methylphenyl)piperidine-1-carboxamide hydrochloride]	–	Inactive	–	TAAR1 Activity (active / inactive, in words) [1]: Inactive
Cl.NCCC1CCN(C(=O)Nc2ccc(F)cc2)CC1 [Compound 11, 4-(2-Aminoethyl)-N-(4-fluorophenyl)piperidine-1-carboxamide hydrochloride]	206 nM	–	–	EC50, μM [1]: submicromolar; Agonistic Activity at 1 μM, % [1]: 84%
Cl.NCCC1CCN(C(=O)Nc2cc(F)ccc2F)CC1 [Compound 12, 4-(2-Aminoethyl)-N-(2,5-difluorophenyl)piperidine-1-carboxamide hydrochloride]	273 nM	–	–	TAAR1 Activity (active / inactive, in words) [1]: Active; Agonistic Activity at 1 μM, % [1]: 75%
Cl.NCCC1CCN(C(=O)Nc2ccc(F)cc2F)CC1 [Compound 13, 4-(2-Aminoethyl)-N-(2,4-difluorophenyl)piperidine-1-carboxamide hydrochloride]	–	Inactive	–	TAAR1 Activity (active / inactive, in words) [1]: Inactive
Cl.NCCC1CCN(C(=O)Nc2cc(F)cc(F)c2)CC1 [Compound 14, 4-(2-Aminoethyl)-N-(3,5-difluorophenyl)piperidine-1-carboxamide hydrochloride]	–	Inactive	–	TAAR1 Activity (active / inactive, in words) [1]: Inactive
Cc1ccc(NC(=O)N2CCC(CCN)CC2)cc1F.Cl [Compound 15, 4-(2-Aminoethyl)-N-(3-fluoro-4-methylphenyl)piperidine-1-carboxamide hydrochloride]	–	Inactive	–	EC50, μM [1]: inactive
Cc1cc(NC(=O)N2CCC(CCN)CC2)ccc1F [Compound 16, 4-(2-Aminoethyl)-N-(4-fluoro-3-methylphenyl)piperidine-1-carboxamide hydrochloride]	143 nM	–	107%	–
Cc1ccc(NC(=O)N2CCC(CCN)CC2)cc1C.Cl [Compound 17, 4-(2-Aminoethyl)-N-(3,4-dimethylphenyl)piperidine-1-carboxamide hydrochloride]	33 nM	–	84%	Reduction in hyperlocomotion of DAT-KO rats [2]: absence of in vivo efficacy
Cc1cc(C)cc(NC(=O)N2CCC(CCN)CC2)c1.Cl [Compound 18, 4-(2-Aminoethyl)-N-(3,5-dimethylphenyl)piperidine-1-carboxamide hydrochloride]	112 nM	–	85%	Effect on DAT-KO hyperlocomotion at 5 mg/kg ([2]; 5 mg/kg i.p., dynamics for 90 min, two-way ANOVA): did not reveal significant effect; Effect on DAT-KO hyperlocomotion at 10 mg/kg ([2]; 10 mg/kg i.p., 90 min, two-way ANOVA): significantly decreased hyperlocomotion; Effect on DAT-KO hyperlocomotion at 15 mg/kg ([2]; 15 mg/kg i.p., 90 min, two-way ANOVA): significantly decreased DAT-KO hyperlocomotion; Reduction in hyperlocomotion of DAT-KO rats ([2]; listed as 18 (AP163)): statistically significant, dose-dependent reduction; also recorded: significantly attenuated DAT-KO hyperlocomotion; Reduction in hyperlocomotion of DAT-KO rats ([2]; listed as AP163): statistically significant and dose-dependent reduction in hyperlocomotion
Cc1ccc(C)c(NC(=O)N2CCC(CCN)CC2)c1.Cl [Compound 19, 4-(2-Aminoethyl)-N-(2,5-dimethylphenyl)piperidine-1-carboxamide hydrochloride]	42 nM	–	80%	Reduction in hyperlocomotion of DAT-KO rats [2]: absence of in vivo efficacy
Cc1cccc(NC(=O)N2CCC(CCN)CC2)c1C [Compound 20, 4-(2-Aminoethyl)-N-(2,3-dimethylphenyl)piperidine-1-carboxamide hydrochloride]	914 nM	–	82%	–
Cl.NCCC1CCN(C(=O)Nc2cccc(C(F)(F)F)c2)CC1 [Compound 21, 4-(2-Aminoethyl)-N-(3-(trifluoromethyl)phenyl)piperidine-1-carboxamide hydrochloride]	35 nM	–	96%	Solubility [3]: poor solubility
COc1ccc(C)cc1NC(=O)N1CCC(CCN)CC1 [Compound 22, 4-(2-Aminoethyl)-N-(2-methoxy-5-methylphenyl)piperidine-1-carboxamide hydrochloride]	1900 nM	–	84%	–
Cl.NCCC1CCN(C(=O)Nc2cccc(Cl)c2)CC1 [Compound 23, 4-(2-Aminoethyl)-N-(3-chlorophenyl)piperidine-1-carboxamide hydrochloride]	–	Inactive	–	–
NCCC1CCN(C(=O)c2ccccc2)CC1 [Compound 24, (4-(2-Aminoethyl)piperidin-1-yl)(phenyl)methanone hydrochloride]	635 nM	–	31%	–
Cc1cccc(C(=O)N2CCC(CCN)CC2)c1 [Compound 25, (4-(2-Aminoethyl)piperidin-1-yl)(m-tolyl)methanone]	634 nM	–	41%	–
Cl.NCCC1CCN(S(=O)(=O)c2ccccc2)CC1 [Compound 26, 2-[1-(Phenylsulfonyl)piperidin-4-yl]ethanamine hydrochloride]	–	Inactive	–	–
Cl.NCCC1CCN(S(=O)(=O)c2ccc(F)cc2)CC1 [Compound 27, 2-{1-[(4-Fluorophenyl)sulfonyl]piperidin-4-yl}ethanamine hydrochloride]	–	Inactive	–	–
Cc1ccc(S(=O)(=O)N2CCC(CCN)CC2)cc1.Cl [Compound 28, 2-{1-[(4-Methylphenyl)sulfonyl]piperidin-4-yl}ethanamine hydrochloride]	–	Inactive	–	–
CN1CCC(CCN)CC1.Cl.Cl [Compound 29, 2-(1-Methylpiperidin-4-yl)ethan-1-amine dihydrochloride]	–	Inactive	–	TAAR1 Activity (active / inactive, in words) [1]: inactivity
CCc1[nH]nc(C(=O)Nc2ccc([C@H]3CNCCO3)cc2)c1C [Ralmitaront]	–	–	–	TAAR1 Activity (reference ligand) [4]: Active
